Experimental data from patent US20240002429A1, “PRODRUG OF 5a-HYDROXY-6ß-[2-(1H-IMIDAZOL-4-YL)ETHYLAMINO]CHOLESTAN-3ß-OL AND PHARMACEUTICAL COMPOSITIONS COMPRISING SAME FOR USE IN THE TREATMENT OF CANCER” (priority 2020, published 2024).

Experiments:
4T1 cells [1] = assay: Cytotoxicity on 4T1 cells, CellTox Green Cytotoxicity Assay; type: cell-based, murine; settings: Mus musculus, 4T1, Green Cytotoxicity Assay, 48 h
Method: (§1) The cellular viability tests were carried out on murine mammary tumor 4T1 cells characterized as negative triples (HER2−, ER−, PR−).
(§2) For this experiment, a cell culture medium was prepared. The culture medium consists of Dulbecco's Modified Eagle Medium (DMEM, marketed by Westburg under the reference LO BE12-604F), comprising 4.5 g/L glucose with L-glutamine, to which 10% of fetal calf serum (FCS) and 50 U/mL of penicillin/streptomycin are added. The 4T1 cells are introduced into this culture medium.
(§3) 96-well plates were seeded with 2000 4T1 cells per well. After 72 hours (h) of culture in normal conditions, i.e. in an incubator at a temperature of 37° C. at 5% CO2, the 4T1 cells are treated for 48 h with DX101, DX107, DX113, DX117, DX119, DX121 or DX131 at 100 nM, 1 μM, 2.5 μM and 10 μM. A control condition (CTL) is also carried out in parallel using the protocol described above but without treatment with the molecules DX101, DX107, DX113, DX117, DX119, DX121, DX131 or DX133.
For the third method, the percentage viability is determined using the kit CellTox Green Cytotoxicity Assay (Promega). This assay measures cell death via a change in membrane integrity. […] As a result, the higher the fluorescence in the wells, the greater is the cell death. After 48 h of treatment, the cells are incubated for a minimum of 15 minutes in the presence of the Celltox green reagent at room temperature and the fluorescence is read at […]. The percentage cell death is determined using the control 100% of cell death (carried out for untreated cells incubated in the presence of the lysis solution for 30 minutes at 37° C. before adding the Celltox green reagent), and the cellular viability in each well is then deduced from this percentage. IC50 is then determined as explained above.

4T1 cells [2] = assay: Cytotoxicity on 4T1 cells, MTT; type: cell-based, murine; settings: Mus musculus, 4T1, MTT, 48 h
Method: as §1, §2, §3
(§4) Cellular viability is measured by three different methods. For the first method, MTT labeling is carried out at 48 hours. This test is based on the use of the tetrazolium salt MTT (3-(4,5-dimethylthiazol-2-yl)-2,5-diphenyltetrazolium bromide). The tetrazolium is reduced by mitochondrial succinate dehydrogenase of active living cells, to formazan, a precipitate of a violet color. The quantity of precipitate formed is proportional to the quantity of living cells but also to the metabolic activity of each cell. […] After 48 hours, the medium is aspirated, and the cells are incubated with MTT (0.5 mg/ml in culture medium) for about 3 hours. The MTT solution is aspirated and the violet crystals are dissolved in dimethylsulfoxide (DMSO). The OD (optical density) is measured at 550 nm. The percentage viability is then determined in each well relative to the CTL and the IC50 (concentration for which there are still 50% of living cells) is determined for each molecule with Prism software using the nonlinear regression straight line (log(inhibitor) vs. Response).

[3] = test system: BT-474 human mammary tumor cells; assay: Cytotoxicity on BT-474 cells, LDH; type: cell-based; settings: BT-474, LDH, 48 h; for Mean LogIC50 (±SEM): log of IC50 in μM; for IC50: Homo sapiens, read-out: IC50
Method: (§5) For the second method, the percentage viability is determined using assay of the activity of the enzyme LDH (lactate dehydrogenase) in the cellular supernatants using the kit non radioactive cytotoxicity assay kit (Promega). LDH is an enzyme released in the supernatant of dead cells. The higher the LDH activity in the supernatant, the greater is the cell death. In this enzyme test, the LDH released converts a violet tetrazolium salt to formazan, of red color, absorbing at 490 nm. The intensity of the red color is proportional to the number of dead cells. After 48 h of treatment, the supernatants are transferred to a new 96-well plate and are incubated for 30 minutes in the presence of the substrate mix at room temperature. The reaction is stopped using the stop buffer and the absorbance is determined at 490 nm. The percentage cell death is determined here using a control 100% of maximum activity of LDH (carried out with untreated cells incubated in the presence of the lysis solution for 45 minutes at 37° C. just before adding the substrate mix), and the cellular viability in each well is then deduced from this percentage. IC50 is then determined as explained in the preceding paragraph.
(§6) The cellular viability tests were also carried out on BT-474 human mammary tumor cells (characterized as being positive triples HER2+, ER+, PR+). The BT-474 cells are in a cell culture medium identical to the preceding example and are seeded in 24-well plates at 70 000 cells per well, for determination of cellular viability using trypan blue, or in 96-well plates at 13 000 cells per well for determination of cellular viability using the MTT or LDH assay. After 96 hours (h) of culture in normal conditions, i.e. in an incubator at a temperature of 37° C. at 5% CO2, the BT-474 cells are treated for 48 h with DX101, DX107, and DX113 at 100 nM, 1 μM, 2.5 μM and 10 μM. A control is also carried out using the protocol described above but without treatment with the molecules DX101, DX107, DX113, DX117, DX119, DX121 or DX131.
(§7) After trypsin digestion for 10 minutes at 37° C., cell survival was quantified, also by a trypan blue assay with automatic counting with the Biorad TC20 equipment (TC20™ Automated Cell Counter). The trypan blue assay is based on the cell membrane integrity, which is broken in the dead cells. Trypan blue stains the dead cells blue. The Biorad TC20 cell counter counts the proportion of blue cells and non-blue cells, relative to the cell percentages. The percentage viability is then determined in each well relative to the untreated cells and the IC50 is determined as explained in the preceding example. The percentage viability of the BT-474 cells was determined using the MTT and LDH assay, carried out as described in the preceding example.

[4] = Pharmacokinetic study of DX121 (LC/MS in plasma); type: in vivo; settings: rat, oral 50 mg/kg, administered compound assayed
Excerpt: (§8) The following study is a determination by LC/MS in plasma of the various molecules over 3 days (11 measurement points at the end). The graphs are always presented in comparison with DX101, which is the reference. […]

[5] = test system: BT-474 human mammary tumor cells; assay: Cytotoxicity on BT-474 cells, MTT; type: cell-based; settings: BT-474, MTT, 48 h; for Mean LogIC50 (±SEM): log of IC50 in μM; for IC50: Homo sapiens, read-out: IC50
Method: as §4, §6, §7

4T1 cells [6] = assay: Cytotoxicity on 4T1 cells, LDH; type: cell-based, murine; settings: Mus musculus, 4T1, LDH, 48 h
Method: as §1, §2, §3, §5

[7] = test system: BT-474 human mammary tumor cells; assay: Cytotoxicity on BT-474 cells, trypan blue; type: cell-based; settings: BT-474, trypan blue, 48 h
Method: as §6, §7

[8] = Pharmacokinetic study of DX117 (LC/MS in plasma); type: in vivo; settings: rat, 50 mg/kg, administered compound assayed
Excerpt: as §8

[9] = log of IC50 in μM, read-out: Mean LogIC50 (±SEM) (converted)

| Compound | IC50 (4T1 cells [1]; [9]) [µM] | IC50 (4T1 cells [1]; read-out: IC50) [µM] | IC50 (4T1 cells [2]; [9]) [µM] | IC50 (4T1 cells [2]; read-out: IC50) [µM] | Mean LogIC50 (±SEM) [3] | IC50 [3] [µM] | Concentration max [4] [nM] | Area under curve ([4]; 0-72 h) | Mean LogIC50 (±SEM) [5] | IC50 [5] [µM] | IC50 (4T1 cells [6]; [9]) [µM] | IC50 (4T1 cells [6]; read-out: IC50) [µM] | Mean LogIC50 (±SEM) ([7]; log of IC50 in μM) | IC50 ([7]; Homo sapiens) [µM] | Concentration max [8] [nM] | Area under curve ([8]; 0-72 h) |
| --- | --- | --- | --- | --- | --- | --- | --- | --- | --- | --- | --- | --- | --- | --- | --- | --- |
| CCOC(=O)O[C@H]1CC[C@]2(C)[C@H]3CC[C@]4(C)[C@@H]([C@H](C)CCCC(C)C)CC[C@H]4[C@@H]3C[C@@H](NCCc3c[nH]cn3)[C@@]2(O)C1 [DX121, 5α-hydroxy-6β-[2-(1H-imidazol-4-yl)ethylamino]cholestan-3β-yl ethyl carbonate] | 6.61 | 6.59 | 11 | 10.8 | 1.47 ± 0.40 | 11.8 | 96.33 | 1000 | 1.05 ± 0.17 | 11.2 | 4.68 | 4.69 | – | – | – | – |
| CCCCCC(=O)O[C@H]1CC[C@]2(C)[C@H]3CC[C@]4(C)[C@@H]([C@H](C)CCCC(C)C)CC[C@H]4[C@@H]3C[C@@H](NCCc3cnc[nH]3)[C@@]2(O)C1 [DX113, 5α-hydroxy-6β-[2-(1H-imidazol-4-yl)-ethylamino]-cholestan-3β-yl hexanoate] | 11 | 10.9 | 18.2 | 18.2 | 1.38 ± 0.07 | 23.7 | – | – | 1.33 ± 0.07 | 21.4 | 5.25 | 5.28 | 1.09 ± 0.15 | 12.3 | – | – |
| CC(C)CCCC(C)[C@H]1CCC2C3C[C@@H](NCCc4c[nH]cn4)[C@@]4(O)C[C@@H](OC(=O)NCCc5c[nH]cn5)CC[C@]4(C)C3CC[C@@]21C (stereo partly drawn) [DX117, 5α-hydroxy-6β-[2-(1H-imidazol-4-yl)ethylamino]-cholestan-3β-yl-(2-(1H-imidazol-4-yl)ethyl)carbamate] | 9.55 | 9.54 | 11 | 10.9 | 0.72 ± 0.18 | 5.25 | – | – | 0.79 ± 0.06 | 6.17 | 8.32 | 8.31 | – | – | 76.67 | 2123 |
| CCC(=O)NC(Cc1ccc(O)cc1)C(=O)O[C@H]1CC[C@]2(C)C3CC[C@@]4(C)C(CC[C@@H]4C(C)CCCC(C)C)C3C[C@@H](NCCc3c[nH]cn3)[C@@]2(O)C1 (stereo partly drawn) [DX133, 5α-hydroxy-6β-[2-(1H-imidazol-4-yl)ethylamino]cholestan-3β-yl propionyltyrosine] | 3.55 | 3.56 | 12.3 | 12.2 | – | – | – | – | – | – | 4.17 | 4.17 | – | – | – | – |
